Consider 16 compounds from patent US8088806B2 (Achillion Pharmaceuticals, Inc., priority 2005, dated 2012).

The structures appear in SMILES notation. pEC50: −log10 of the molar value. Some results are limits rather than exact numbers.

The test system of the first assay is HCV replicon. The experiment in a line: Replicon based assay of HCV replication inhibition (NPT ELISA). It counts as cell-based, Hepatitis C virus. The note with it: Hepatitis C virus, Huh-7, 72 h, Table I; Huh-7 HCV replicon-containing cells, three days; read-out: Activity. The procedure: Compounds claimed herein are tested for the ability to inhibit viral replication of the Hepatitis C replicon in cultured cells in which the HCV replicon construct has been incorporated. The HCV replicon system was described by Bartenschlager, et. al (Science, 285, pp. 110-113 (1999)). The replicon system is predictive of in vivo anti-HCV activity; compounds that are active in humans uniformly evidence activity in the replicon assay.
In this assay HCV replicon containing cells are treated with different concentrations of the test compound to ascertain the ability of the test compound to suppress replication of the HCV replicon. As a positive control, HCV replicon-containing cells are treated with different concentrations of interferon alpha, a known inhibitor of HCV replication. The replicon assay system includes Neomycin Phosphotransferase (NPT) as a component of the replicon itself in order to detect the transcription of replicon gene products in the host cell. Cells in which the HCV replicon is actively replicating have high levels of NPT; the level of NPT is proportional to HCV replication. […] The NPT level of each sample is measured using a captured ELISA.
A protocol for testing compounds for the ability to inhibit viral replication of the Hepatitis C replicon cultured cells in which the replicon construct has been incorporated, follows.
The HCV replicon contains, 5′-3′, the HCV-IRES, the neomycin phosphotransferase (neo) gene, the IRES of encephalomyocarditis virus, which directs translation of HCV sequences NS3 to NS5B, and the 3′-NTR. The sequence of the HCV replicon has been deposited in GenBank (Accession no. AJ242652).
The replicon is transfected into Huh-7 cells using standard methods such as electroporation.
The equipment and materials include, but are not limited to, Huh-7 HCV replicon-containing cells, maintenance media (DMEM (Dulbecco's modified Eagle media) supplemented with 10% FBS, L-glutamine, non-essential amino acids, penicillin (100 units/ml), streptomycin (100 micrograms/ml), and 500 micrograms/ml of Geneticin (G418), screening media (DMEM supplemented with 10% FBS, L-glutamine, non-essential amino acids, penicillin (100 units/ml) and streptomycin (100 micrograms/ml)), 96 well tissue culture plates (flat bottom), 96 well plates (U bottom for drug dilution), Interferon alpha for positive control, fixation reagent (such as methanol: acetone), primary antibody (rabbit anti-NPTII), secondary antibody: Eu-N1l, and enhancement solution.
The cells are then seeded onto 96-well plates at a density of 6000-7500 cells/100 microliters/well (6-7.5×10^5 cells/10 ml/plate). The plates are then incubated at 37° C. in a 5% CO2 incubator.
HCV replicon-containing cells are rinsed with once PBS once; 2 mls of trypsin are then added. Cells are incubated at 37° C. in a 5% CO2 incubator for 3-5 minutes. 10 mls of complete medium is added to stop the reaction. Cells are blown gently, put into a 15 ml tube, and spun at 1200 rpm for four minutes. The trypsin/medium solution is removed and 5 mls of medium (500 ml DMEM (high glucose)) from BRL catalog #12430-054; 50 mls 10% FBS, 5% Geneticin G418 (50 mg/ml, BRL catalog #10131-035), 5 ml MEM non-essential amino acids (100×BRL #11140-050) and 5 ml pen-strep (BRL # 15140-148) is added. The cells and media are mixed carefully
Cells are plated with screening medium (500 ml DMEM (BRL #21063-029), 50 ml FBS (BRL #10082-147) and 5 ml MEM non-essential amino acid (BRL #11140-050) at 6000-7500 cells/100 μl/well of 96 well plate (6-7.5×10^5 cells/10 ml/plate). Plates are placed into 37° C. 5% CO2 incubator overnight.
The following morning, drugs (test compounds or interferon alpha) are diluted in 96 well U bottom plates with media or DMSO/media, depending on the final concentration chosen for screening. Generally for 6 concentrations of each test compounds ranging from 10 micromolar to 0.03 micromolar are applied. […]
In general terms: A replicon is a self-replicating genome or part of one, used to study replication in cells.
With `CCCCCOc1ccc(Nc2nccs2)cc1C(F)(F)F` [compound 1, N-(3-(trifluoromethyl)-4-(pentyloxy)phenyl)thiazol-2-amine], the pEC50 is above 6.00. The same measure, in the same setting: the same measure for `CCCCCOc1ccc(Nc2nc(-c3ccc(F)cc3)cs2)cc1C(F)(F)F` [compound 2, N-(3-(trifluoromethyl)-4-(pentyloxy)phenyl)-4-(4-fluorophenyl)thiazol-2-amine]: above 6.00.

As to `CCCCCOc1ccc(Nc2nc(-c3ccc(OC(F)F)cc3)cs2)cc1C(F)(F)F` [compound 4, 4-(4-(difluoromethoxy)phenyl)-N-(3-(trifluoromethyl)-4-(pentyloxy)phenyl)thiazol-2-amine], the pEC50 is above 6.00. Still for that read-out and setting: the same measure for `CCCCCOc1ccc(Nc2nc(C(Cc3ccccc3)NS(=O)(=O)c3ccc(C)cc3)cs2)cc1C(F)(F)F` (stereo not shown) [compound 6, N-(3-(trifluoromethyl)-4-(pentyloxy)phenyl)-4-(2-phenyl-1-(tosylamino)ethyl)thiazol-2-amine]: 5.00 to 6.00. On the same count and under the same terms, the same measure for `CCCCCOc1ccc(Nc2nc(-c3cccnc3)cs2)cc1C(F)(F)F` [compound 7, N-(3-(trifluorometbyl)-4-(pentyloxy)phenyl)-4-(pyridin-3-yl)thiazol-2-amine]: above 6.00; for `CCCCCOc1ccc(Nc2nc(-c3ccc(N4CCCC4)cc3)cs2)cc1C(F)(F)F` [compound 8, N-(3-(trifluoromethyl)-4-(pentyloxy)phenyl)-4-(4-(pyrrolidin-1-yl)phenyl)thiazol-2-amine]: above 6.00. The same measure, in the same setting: the same measure for `CCCCCOc1ccc(Nc2ncc(Br)s2)cc1C(F)(F)F` [compound 9, 5-bromo-N-(3-(trifluoromethyl)-4-(pentyloxy)phenyl)thiazol-2-amine]: above 6.00; for `CCCCCOc1ccc(Nc2nc(C(=O)O)cs2)cc1C(F)(F)F` [compound 10, 2-(3-(trifluoromethyl)-4-(pentyloxy)phenylamino)thiazole-4-carboxylic acid]: below 5.00. Turning to `CCCCCOc1ccc(Nc2nc(C(=O)Nc3ccc(Cl)cc3)cs2)cc1C(F)(F)F` [compound 11, 2-(3-(trifluoromethyl)-4-(pentyloxy)phenylamino)-N-(4-chlorophenyl)thiazole-4-carboxamide], the pEC50 was below 5.00. Still for that read-out and setting: the same measure for `CCCCCOc1ccc(Nc2nc(-c3ccc(F)cc3)c(C)s2)cc1C(F)(F)F` [compound 12, N-(3-(trifluoromethyl)-4-(pentyloxy)phenyl)-4-(4-fluorophenyl)-5-methylthiazol-2-amine]: above 6.00. Regarding `CCCCCOc1ccc(Nc2csc(-c3cccnc3)n2)cc1C(F)(F)F` [compound 13, N-(3-(trifluoromethyl)-4-(pentyloxy)phenyl)-2-(pyridin-3-yl)thiazol-4-amine], the pEC50 was below 5.00. On the same count and under the same terms, the same measure for `CCCCCOc1ccc(Nc2nc(C(=O)Nc3cccnc3)cs2)cc1C(F)(F)F` [compound 14, 2-(3-(trifluoromethyl)-4-(pentyloxy)phenylamino)-N-(pyridin-3-yl)thiazole-4-carboxamide]: above 6.00. For `CCCCCOc1ccc(Nc2nc(C(=O)Nc3ccc(C#N)cc3)cs2)cc1C(F)(F)F` [compound 15, 2-(3-(trifluoromethyl)-4-(pentyloxy)phenylamino)-N-(4-cyanophenyl)thiazole-4-carboxamide], the pEC50 was below 5.00. Still for that read-out and setting: the same measure for `CCCCCOc1ccc(Nc2nc(C(=O)Nc3ccc(OC)cc3)cs2)cc1C(F)(F)F` [compound 16, 2-(3-(trifluoromethyl)-4-(pentyloxy)phenylamino)-N-(4-methoxyphenyl)thiazole-4-carboxamide]: below 5.00. The same measure, in the same setting: the same measure for `CCCCCOc1ccc(Nc2nc(C(=O)Nc3ccc(C(C)(C)C)cc3)cs2)cc1C(F)(F)F` [compound 17, 2-(3-(trifluoromethyl)-4-(pentyloxy)phenylamino)-N-(4-tert-butylphenyl)thiazole-4-carboxamide]: below 5.00.

Staying with this assay, now noted: Table I; Huh-7 HCV replicon-containing cells, three days; read-out: Activity.
As to `CCCCCOc1ccc(Nc2nc(-c3ccc(Cl)cc3)cs2)cc1C(F)(F)F` [compound 3], the pEC50 is above 6.00.
